Experimental data as given in PubChem BioAssay AID2060488 (Molecular Pharmacology Branch, DTP, NCI, 2025).

System: 966289-007-R4-J1-PDC complex spheroid viability
Experiment: Anticancer human tumor 966289-007-R4-J1-PDC patient-derived pancreatic adenocarcinoma cell line growth inhibition [GQUAD]
Conditions: for IC50: curve of first compound; for viability, T/C: stronger effect = lower value
Description: DNA G-quadruplex Stabilizer Agents in Combinations in Complex Spheroids
A high-throughput screen of multi-cell type tumor spheroids was designed to identify active combinations of DNA G-quadruplex stabilizer agents and targeted small molecules. Complex spheroids include a stromal component modeled by human endothelial cells (HUVEC) and fibroblasts modeled by human mesenchymal stem cells (MSCs). The concentration ranges selected for each drug and investigational agent were based upon clinically achievable concentrations if the clinical Cmax of the agent was known.
Compounds. The drugs and investigational agents: pidnarulex (CX-5461; NSC782164), APTO-253 (NSC789042), BRACO-19 (NSC847499), peposertib (NSC802822), ceralasertib (NSC780249), elimusertib (NSC800525), camonsertib (NSC841442), AZD-1390 (NSC803789), olaparib (NSC753686), talazoparib (NSC767125), ART-558 (NSC835418), sotorasib (NSC818433), MRTX-1133 (NSC836407), SN-38 (NSC673596), topotecan (NSC609699), etoposide (NSC141540), doxorubicin (NSC123127), gemcitabine (NSC613327), 5-fluorouracil (NSC19893), paclitaxel (NSC125973), vemurafenib (NSC761431), panobinostat (NSC761190), R-306465 (JNJ-16241199; NSC773264), adavosertib (NSC754352), TP-3654 (NSC805149), carboplatin (NSC241240), KSQ-4279 (NSC840948), and staurosporine (NSC755774) were obtained from the National Cancer Institute (NCI) Developmental Therapeutics Program Chemical Repository (34). The FDA-approved anticancer drug set is available from the NCI Developmental Therapeutics Program. […] The stock solutions were prepared in dimethyl sulfoxide (DMSO, Sigma-Aldrich, St. Louis, MO, cat. D2650) at 800-fold the tested concentration and stored at -70 degrees C prior to their use. All drugs and investigational agents were tested over a range starting from a high concentration at or near the clinical Cmax and decreasing in half-log increments. If the clinical Cmax for an agent had not been determined, the highest concentration tested was 10 microM.
2.3 Cell Culture. All cells were maintained in an incubator at 37 degrees C and 5% CO2 with 95% humidity. The PDC lines were cultured according to standard operating procedures established by the NCI PDMR. All PDCs were thawed and cultured in Matrigel-coated flasks prepared with a working solution of 1X Ham's F-12 nutrient mix, without supplementation (Invitrogen, cat. 11765054), 100 U/mL penicillin-streptomycin (Invitrogen, cat. 15140122), and 2.5% Matrigel (Corning Inc., cat. 354248) for the first three passages. The 857933-349-R-J2-PDC line was cultured in 6C/Colon 1B media, which includes advanced DMEM/F-12 (Thermo Fisher Scientific, cat. 12634028), 10 mM HEPES (Thermo Fisher Scientific, cat. 15630080), 1X GlutaMAX supplement (Thermo Fisher Scientific, cat. 35050061), 0.1 mg/mL primocin (InvivoGen, cat. ant-pm-2), 10% defined fetal bovine serum, heat inactivated (HyClone Laboratories Inc., cat. SH30070.03HI), 50% L-WRN conditioned media (ATCC, cat. CRL-3276), 1.25 mM N-Acetyl-L-cysteine (Sigma-Aldrich, cat. A9165), 10 mM nicotinamide (Sigma-Aldrich, cat. N0636), 1X B-27 supplement (Thermo Fisher Scientific, cat. 17504044), 1X N-2 supplement (Thermo Fisher Scientific, cat. 17502048), 10 microM Y-27632 dihydrochloride (Tocris Bioscience, cat. 1254), and 50 ng/mL human EGF recombinant protein (Thermo Fisher Scientific, cat. PHG0311). The 485176-168-R4-J1-PDC line was cultured in Panc media, which includes all 6C/Colon 1B media components plus 100 ng/mL human FGF-10 (Thermo Fisher Scientific, cat. 100-26), 500 nM SB-431542 (Selleckchem, cat. S1067), and gastrin (Tocris, cat. 3006).
[…]

[1] = second compound 0.0316 µM, first compound 0.0316 µM
[2] = second compound 0.0316 µM, first compound 0.1 µM
[3] = second compound 0.0316 µM, first compound 0.316 µM
[4] = second compound 0.0316 µM, first compound 1 µM
[5] = second compound 0.0316 µM, first compound 3.16 µM
[6] = second compound 0.0316 µM, first compound 10 µM
[7] = second compound 0.1 µM, first compound 0.0316 µM
[8] = second compound 0.1 µM, first compound 0.1 µM
[9] = second compound 0.1 µM, first compound 0.316 µM
[10] = second compound 0.1 µM, first compound 1 µM
[11] = second compound 0.1 µM, first compound 3.16 µM
[12] = second compound 0.1 µM, first compound 10 µM
[13] = second compound 0.316 µM, first compound 0.0316 µM
[14] = second compound 0.316 µM, first compound 0.1 µM
[15] = second compound 0.316 µM, first compound 0.316 µM
[16] = second compound 0.316 µM, first compound 1 µM
[17] = second compound 0.316 µM, first compound 3.16 µM
[18] = second compound 0.316 µM, first compound 10 µM
[19] = second compound 1 µM, first compound 0.0316 µM
[20] = second compound 1 µM, first compound 0.1 µM
[21] = second compound 1 µM, first compound 0.316 µM
[22] = second compound 1 µM, first compound 1 µM
[23] = second compound 1 µM, first compound 3.16 µM
[24] = second compound 1 µM, first compound 10 µM
[25] = second compound 3.16 µM, first compound 0.0316 µM
[26] = second compound 3.16 µM, first compound 0.1 µM
[27] = second compound 3.16 µM, first compound 0.316 µM
[28] = second compound 3.16 µM, first compound 1 µM
[29] = second compound 3.16 µM, first compound 3.16 µM
[30] = second compound 3.16 µM, first compound 10 µM
[31] = second compound 10 µM, first compound 0.0316 µM
[32] = second compound 10 µM, first compound 0.1 µM
[33] = second compound 10 µM, first compound 0.316 µM
[34] = second compound 10 µM, first compound 1 µM
[35] = second compound 10 µM, first compound 3.16 µM
[36] = second compound 10 µM, first compound 10 µM
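Note: spheroids exposed to the agents for seven days before readout.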
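Throughout, for viability, T/C: percent viability relative to DMSO vehicle control wells taken as 100%.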

COc1cc(C2c3cc4c(cc3C(OC3OC5COC(C)OC5C(O)C3O)C3COC(=O)C23)OCO4)cc(OC)c1O (centres undefined) + CN(C)c1ccc(Nc2c3ccc(NC(=O)CCN4CCCC4)cc3nc3cc(NC(=O)CCN4CCCC4)ccc23)cc1
IC50 (second compound 0.0316 µM): 300 nM
IC50 (second compound 0.1 µM): 301 nM
IC50 (second compound 0.316 µM): 271 nM
IC50 (second compound 1 µM): 276 nM
IC50 (second compound 3.16 µM): 270 nM
IC50 (second compound 10 µM): 202 nM
viability, T/C [1]: 115%
viability, T/C [2]: 105%
viability, T/C [3]: 46.6%
viability, T/C [4]: 9.16%
viability, T/C [5]: 1.79%
viability, T/C [6]: 0.77%
viability, T/C [7]: 111%
viability, T/C [8]: 107%
viability, T/C [9]: 46.6%
viability, T/C [10]: 9.53%
viability, T/C [11]: 1.99%
viability, T/C [12]: 0.86%
viability, T/C [13]: 101%
viability, T/C [14]: 104%
viability, T/C [15]: 41.9%
viability, T/C [16]: 5.72%
viability, T/C [17]: 2.08%
viability, T/C [18]: 0.76%
viability, T/C [19]: 104%
viability, T/C [20]: 109%
viability, T/C [21]: 42.4%
viability, T/C [22]: 6.82%
viability, T/C [23]: 1.89%
viability, T/C [24]: 1.07%
viability, T/C [25]: 96.1%
viability, T/C [26]: 108%
viability, T/C [27]: 41.8%
viability, T/C [28]: 6.04%
viability, T/C [29]: 2.44%
viability, T/C [30]: 0.87%
viability, T/C [31]: 108%
viability, T/C [32]: 98.1%
viability, T/C [33]: 19.4%
viability, T/C [34]: 3.24%
viability, T/C [35]: 1.49%
viability, T/C [36]: 0.61%

COc1cccc2c1C(=O)c1c(O)c3c(c(O)c1C2=O)CC(O)(C(=O)CO)CC3OC1CC(N)C(O)C(C)O1 (centres undefined) + CN(C)c1ccc(Nc2c3ccc(NC(=O)CCN4CCCC4)cc3nc3cc(NC(=O)CCN4CCCC4)ccc23)cc1
IC50 (second compound 0.0316 µM): 69.2 nM
IC50 (second compound 0.1 µM): 67.1 nM
IC50 (second compound 0.316 µM): 65.1 nM
IC50 (second compound 1 µM): 66.2 nM
IC50 (second compound 3.16 µM): 65.7 nM
IC50 (second compound 10 µM): 59.6 nM
viability, T/C [1]: 112%
viability, T/C [2]: 20.7%
viability, T/C [3]: 3.69%
viability, T/C [4]: 0.82%
viability, T/C [5]: 0.35%
viability, T/C [6]: 0.92%
viability, T/C [7]: 108%
viability, T/C [8]: 19.4%
viability, T/C [9]: 3.8%
viability, T/C [10]: 0.83%
viability, T/C [11]: 0.26%
viability, T/C [12]: 0.53%
viability, T/C [13]: 105%
viability, T/C [14]: 17.7%
viability, T/C [15]: 3.65%
viability, T/C [16]: 0.88%
viability, T/C [17]: 0.29%
viability, T/C [18]: 0.67%
viability, T/C [19]: 101%
viability, T/C [20]: 21.3%
viability, T/C [21]: 3.85%
viability, T/C [22]: 0.93%
viability, T/C [23]: 0.27%
viability, T/C [24]: 0.34%
viability, T/C [25]: 106%
viability, T/C [26]: 18.1%
viability, T/C [27]: 3.67%
viability, T/C [28]: 0.97%
viability, T/C [29]: 0.25%
viability, T/C [30]: 0.67%
viability, T/C [31]: 97.9%
viability, T/C [32]: 11%
viability, T/C [33]: 1.38%
viability, T/C [34]: 0.42%
viability, T/C [35]: 0.24%
viability, T/C [36]: 0.29%
